Assay results from patent US6468992B1, “Phosphonic acid diester derivatives” (Otsuka Pharmaceutical Factory, Inc., priority 1998, dated 2002).

System: male Wister rats
Assay: blood glucose-lowering activity in dexamethasone-treated rats
Format: in vivo
Details: male Wister rats given dexamethasone 0.5 mg/kg i.p. once a day for 4 days; test compound 100 mg/kg orally daily; serum glucose on day 4, 4 hours after dexamethasone, fasted 24 hours; versus control and normal groups
Protocol: The compounds of the present invention were tested for blood glucose-lowering activities in rats in the following manner.
That is, Dexamethasone (Decadron S injectable solution:made by Banyu Pharmaceutical Co.,Ltd.) was administered intraperitoneally to a group (test group) of 5 male Wister rats (6 weeks old) at a daily dose of 0.5 mg/kg, once a day for 4 days. Immediately after the administration of dexamethasone, a test compound (100 mg/kg) dissolved in 5% gum arabic solution was administered orally to rats daily. On day 4, the rats were decapitated 4 hours after the administration of dexamethasone. Blood was collected and centrifuged (3000 rpm, […], 15 minutes), then the glucose level in the obtained serum was measured by the use of Glucose cII Test Wako (made by Wako Pure Chemical Industries, Ltd.). The rats were maintained on a diet ad libitum and then fasted 24 hours before the collection of blood.
Animals which were given 5% gum arabic solution instead of a test compound were served as a control group and those which were maintained merely on a diet ad libitum were served as a normal group. The serum glucose levels of them were measured according to the same manner as above. The decrease rate of blood glucose level was determined by the value (mean value) of each group from the following equation. [formula]

Compared with `CCOP(=O)(CCCC(=O)Nc1cc(Cl)cc(Cl)c1C(=O)NC)OCC` [Example 7, diethyl 3-[N-[3,5-dichloro-2-(N-methylcarbamoyl)phenyl]carbamoyl]propylphosphonate], `CCOP(=O)(CCCC(=O)Nc1c(Cl)cc(Cl)cc1C(=O)NC)OCC` [Example 8, diethyl 3-[N-[4,6-dichloro-2-(N-methylcarbamoyl)phenyl]-carbamoyl]propylphosphonate] is higher in “Decrease rate (%) in blood glucose level” value: 30% for the first, 39% for the second.

Going from `CCOP(=O)(CCCC(=O)Nc1cccc(Cl)c1C(=O)Nc1ccccc1)OCC` [Example 31, diethyl 3-[N-[3-chloro-2-(N-phenylcarbamoyl)phenyl]carbamoyl]propylphosphonate] to `CCOP(=O)(OCC)C(=O)Nc1cc(Cl)ccc1C(=O)NC` [Example 51, Diethyl N-[5-chloro-2-(N-methylcarbamoyl)phenyl]carbamoyl phosphonate], the “Decrease rate (%) in blood glucose level” value falls from 59% to 17%.
